# Source: the NIST ThermoML archive (doi:10.1021/je7001144)
# Numbers after ± are expanded uncertainties.
# Conditions: Liquid, Ebulliometric method (Recirculating still)
smiles,measurement,setting,value
C=COC(F)(F)F [perfluoromethyl vinyl ether],vapor or sublimation pressure,267.67 K,222.4 ± 0.9 kPa
same,vapor or sublimation pressure,272.54 K,264.7 ± 1.1 kPa
same,vapor or sublimation pressure,277.45 K,313.2 ± 1.3 kPa
same,vapor or sublimation pressure,282.62 K,367.3 ± 1.5 kPa
"FC(F)=C(F)Cl [1-chloro-1,2,2-trifluroethene]",vapor or sublimation pressure,267.67 K,248 ± 1 kPa
same,vapor or sublimation pressure,272.54 K,294.4 ± 1.2 kPa
same,vapor or sublimation pressure,277.45 K,347.8 ± 1.4 kPa
same,vapor or sublimation pressure,282.62 K,408.1 ± 1.6 kPa
